Test [1] deals with 22Rv.1. Put plainly: Clonogenic assay (clonal expansion). It is filed as cell-based. Conditions: Prostate Cancer (22Rv.1), AR+, inhibition of clonal expansion. On the procedure:
(§1) Cells were seeded at a density of 1-2×10^3 cells/well in a 6 well plate in RPMI 1640 supplemented with 10% FBS, penicillin (100 u/ml), streptomycin (100 u/ml), and L-glutamine (2 mM). Cells were treated with increasing concentrations of X15695 and cultured for 14 to 21 days. Medium and compounds were exchanged after 7 days. Cells were fixed with methanol/ acetic acid mixture (3:1 v/v) and the formation of colonies was visualized using 0.5% crystal violet (w/v) in 20% methanol (v/v). Plates were scanned in a conventional office scanner (Epson). The area covered by colonies was calculated using the ColonyArea Plugin for ImageJ.

Test [2] relates to LNCaP. The test is described as follows: Clonogenic assay (clonal expansion). Format: cell-based. Conditions: Prostate Cancer (LNCaP), AR+, inhibition of clonal expansion. On the procedure: as §1
Test [3] has as its system MCF-7. The test is described as follows: Clonogenic assay (clonal expansion). It is filed as cell-based. Conditions: Breast Cancer (MCF-7), ER+, inhibition of clonal expansion. On the procedure:
as §1

In test [4] the test system is ZR75-1. Put plainly: Clonogenic assay (clonal expansion). The settings on record: Breast Cancer (ZR75-1), ER+, inhibition of clonal expansion. It is filed as cell-based. On the procedure:
as §1

The subject of test [5] is ER^+ and AR^+ breast and prostate cancer cells. The settings on record: proliferation of ER^+ and AR^+ breast and prostate cancer cells, previously reported; cited from earlier work.
The subject of test [6] is T47D. The test is described as follows: Clonogenic assay (clonal expansion). Format: cell-based. Conditions: Homo sapiens; Breast Cancer (T47D), ER+; inhibition of clonal expansion. On the procedure:
as §1

The test system of test [7] is DU145. The test is described as follows: Clonogenic assay (clonal expansion). Format: cell-based. Conditions: Homo sapiens, DU-145; Prostate Cancer (DU145), AR-; inhibition of clonal expansion. The protocol: as §1
The test system of test [8] is PC3. The test is described as follows: Clonogenic assay (clonal expansion). Format: cell-based. Conditions: Homo sapiens; Prostate Cancer (PC3), AR-; inhibition of clonal expansion. On the procedure:
as §1

Test [9] concerns ERα. The settings on record: MCF-7 cells. The protocol: For Western blotting, cells were lysed in NP-40 lysis buffer (1% NP-40, 50 mM Tris-HCl, pH 8.0, 150 mM NaCl, 5 mM EDTA) or 1× passive lysis buffer (Promega, Germany) for 15 min on ice. Cell debris was removed by centrifugation at 13,000 rpm for 10 min and used for SDS-polyacrylamide gel electrophoresis (PAGE) and Western blotting.
Western Blotting was carried out using standard protocols with antibodies: p53 (clone DO1), p53 (Sp5, Thermo Fisher Scientific Karlsruhe, Germany), Mdm2 (4B2, Abcam, Cambridge, UK). […] Secondary goat anti-mouse and goat anti-rabbit antibodies were purchased from DAKO (Bollschweil, Germany).

For test [10], the system named is TRMCF-7 cells (tamoxifen resistant MCF-7 cells). The test is described as follows: MTT cell viability assay. It is filed as cell-based. The settings on record: 48 h. The protocol: […] Cells transfected with siRNA were incubated for 72 h after X15695 addition. Thereafter, the medium was exchanged for a fresh medium containing 0.5 mg/ml MTT (Sigma-Aldrich) and incubated at 37°C for 1 h to 4 h (depending on cell line) until intracellular purple formazan crystals were formed. The MTT solution was removed, and the purple crystals were dissolved in isopropanol and the optical absorbance at 595 nm was recorded using SpectraMax iD3, Molecular Devices, San Jose, CA, USA.

Test [11] deals with TRMCF-7 cells. Put plainly: Clonogenic assay (clonal expansion). Format: cell-based. On the procedure: as §1

The values that follow come from EP4417202A1, “ANTI-CANCER ACTION OF BAG1-SELECTIVE IMIDAZOPYRIDINE COMPOUNDS IN STEROID HORMONE RECEPTOR-POSITIVE BREAST AND PROSTATE CANCER” (Karlsruher Institut für Technologie, priority 2023, dated 2024).

As to `Fc1ccc(-c2nc3cc(C(F)(F)F)ccc3s2)cc1` [Compound A4B17, reference compound], the IC50 is 3400 nM in test [1], 1600 nM in test [2], 1280 nM in test [3] and 110 nM in [4]. For the same compound, in test [5], the IC50 values entry is “in the micromolar range”.

As to `Fc1ccc(-c2cn3cc(Br)ccc3n2)cc1` [Compound X19168, 6-bromo-2-(4-fluorophenyl)imidazo[1,2-a]pyridine], the IC50 in test [1] (Homo sapiens, 22Rv1) was determined as 641 ± 246 nM; in test [3] (Homo sapiens, MCF7), 12 nM.

As to `Fc1ccccc1-c1cn2cc(C(F)(F)F)cc(Cl)c2n1` [Compound X19720, 8-Chloro-2-(2-fluorophenyl)-6-(trifluoromethyl)imidazo[1,2-a]pyridine], the half-maximal inhibitory concentration (IC50) was 4.4 ± 1.6 nM in [1] (Homo sapiens, 22Rv1); below 0.1 nM in test [2] (Homo sapiens); 14.5 nM in [3] (Homo sapiens, MCF7).

As for `Cc1cc(Cl)c2nc(-c3ccc(F)cc3)cn2c1` [Compound X19724, 8-Chloro-2-(4-fluorophenyl)-6-methylimidazo[1,2-a]pyridine], the IC50 came to 4.4 nM in [1] (Homo sapiens, 22Rv1); 0.2 nM in [2] (Homo sapiens); 3.3 ± 0.9 nM in [3] (Homo sapiens, MCF7); 86.1 ± 49.1 nM in test [6]; 16.2 ± 4.7 nM in [4] (Homo sapiens, ZR-75-1).

Take `Cc1cc(Cl)c2nc(-c3ccccc3)cn2c1` [Compound X19728, 8-Chloro-6-methyl-2-phenylimidazo[1,2-a]pyridine]: the half-inhibitory concentration (IC50) in test [1] (Homo sapiens, 22Rv1) amounted to 48.5 ± 13.3 nM; in test [3] (Homo sapiens, MCF7), 6 ± 2.8 nM; in [4] (Homo sapiens, ZR-75-1), 39.2 ± 24.3 nM.

Consider `Fc1ccc(-c2cn3cc(C(F)(F)F)ccc3n2)cc1` [Compound X20046, 2-(4-Fluorophenyl)-6-(trifluoromethyl)imidazo[1,2-a]pyridine], for which the half-maximal inhibitory concentration (IC50) was determined as 7.5 ± 3.2 nM in [1] (Homo sapiens, 22Rv1); 0.1 nM in test [2] (Homo sapiens); 10 ± 4.3 nM in test [3] (Homo sapiens, MCF7); 57.1 nM in [6]; 31.8 nM in [4] (Homo sapiens, ZR-75-1).

Turning to `FC(F)(F)c1cc(Cl)c2nc(-c3ccccc3)cn2c1` [X19166/ X15696, 8-Chloro-2-phenyl-6-(trifluoromethyl)imidazo[1,2-a]pyridine], the 50% inhibitory concentration (IC50) in test [1] (Homo sapiens, 22Rv1) is 22.5 ± 6.6 nM; in [7] it was 3.58 µM; in test [2] (Homo sapiens), below 0.1 nM; in test [3] (Homo sapiens, MCF7) it was 7.9 ± 1.9 nM; in test [8] it was 11.9 µM; in test [6], 44.7 ± 11.4 nM. The same compound came in with a half-maximal inhibitory concentration (IC50) in test [4] (Homo sapiens, ZR-75-1) of 10.2 ± 2.7 nM.

On to `C[C@]12CC[C@@H]3c4ccc(O)cc4C[C@@H](CCCCCCCCC[S+]([O-])CCCC(F)(F)C(F)(F)F)[C@H]3[C@@H]1CC[C@@H]2O` (stereo partly drawn) [fulvestrant, reference compound], for which the “ERα downregulation over time” value in test [9] (1 µM, time course) is on record as “rapidly downregulated ERα level within 4 h to 8 h recovering gradually thereafter”. Also, the “concentration sufficient to downregulate ERα” value in [9] (8 h) is recorded as at most 1 nM. The inhibition of viability entry in test [10] is on record as “comparable activities”. In [11], the “inhibition of clonal expansion” value is listed as “slightly more efficacious than X15695”.

As for `CC/C(=C(\c1ccccc1)c1ccc(OCCN(C)C)cc1)c1ccccc1` [tamoxifen], in test [10], the inhibition of viability entry is recorded as “ineffective”. Further, the “inhibition of clonal expansion” value in [11] is “inactive”.
